Calls of active or inactive are those of the source. No cut-off for these calls is given here.
Legend:
[1] = test system: GL261; assay: Induction of autophagy in mouse GL261 cells transfected with mRFP-GFPLC3 adenovirus assessed as yellow fluorescence at 2 uM incubated for 48 hrs by confocal microscopy; type: functional, cell-based
[2] = test system: GL261; assay: Induction of apoptosis in mouse GL261 cells assessed as increase in cleaved PARP level measured at 0.5 to 2 uM after 24 hrs by Western blot analysis; type: functional, cell-based; conditions: dose 0.5-2 µM
[3] = test system: HeLa; assay: Anti-proliferative activity against human HeLa cells assessed as inhibition rate at 160 uM incubated for 24 to 72 hrs by CCK8 assay relative to control; type: functional; conditions: time 24-72 hrs
[4] = test system: GL261; assay: Induction of apoptosis in mouse GL261 cells assessed as increase in annexin-V+/PI- cells incubated for 24 to 72 hrs by flow cytometry; type: functional, cell-based; conditions: dose 0.5-2 µM, time 24-72 hrs
[5] = test system: GL261; assay: Anti-proliferative activity against mouse GL261 cells assessed as inhibition rate at 2 uM incubated for 72 hrs by CCK8 assay relative to control; type: functional
[6] = Bioavailability in C57BL6/J mouse at 5 mg/kg, […] measured upto 24 hrs by LC-MS/MS analysis; type: ADME, organism-based; conditions: in vivo
[7] = test system: U-87 MG; assay: Anti-proliferative activity against human U-87 MG cells assessed as decrease in cell viability at 0.5 to 10 uM by CCK8 assay; type: functional, cell-based; conditions: U-87MG ATCC, dose 0.5-10 µM, time 24-72 hrs, TDE = time-dependent effect
[8] = MRT (0 to 8hrs) in C57BL6/J mouse at 5 mg/kg, iv measured upto 24 hrs by LC-MS/MS analysis; type: ADME, organism-based; conditions: in vivo
[9] = biological target: ALK tyrosine kinase receptor (Mus musculus) (UniProt P97793); assay: Binding affinity to ALK in mouse GL261 cell lysate assessed as immunoprecipitation measured after overnight incubation by pull-down assay; type: subcellular
Chain of ALK tyrosine kinase receptor (Mus musculus) (P97793 whole entry): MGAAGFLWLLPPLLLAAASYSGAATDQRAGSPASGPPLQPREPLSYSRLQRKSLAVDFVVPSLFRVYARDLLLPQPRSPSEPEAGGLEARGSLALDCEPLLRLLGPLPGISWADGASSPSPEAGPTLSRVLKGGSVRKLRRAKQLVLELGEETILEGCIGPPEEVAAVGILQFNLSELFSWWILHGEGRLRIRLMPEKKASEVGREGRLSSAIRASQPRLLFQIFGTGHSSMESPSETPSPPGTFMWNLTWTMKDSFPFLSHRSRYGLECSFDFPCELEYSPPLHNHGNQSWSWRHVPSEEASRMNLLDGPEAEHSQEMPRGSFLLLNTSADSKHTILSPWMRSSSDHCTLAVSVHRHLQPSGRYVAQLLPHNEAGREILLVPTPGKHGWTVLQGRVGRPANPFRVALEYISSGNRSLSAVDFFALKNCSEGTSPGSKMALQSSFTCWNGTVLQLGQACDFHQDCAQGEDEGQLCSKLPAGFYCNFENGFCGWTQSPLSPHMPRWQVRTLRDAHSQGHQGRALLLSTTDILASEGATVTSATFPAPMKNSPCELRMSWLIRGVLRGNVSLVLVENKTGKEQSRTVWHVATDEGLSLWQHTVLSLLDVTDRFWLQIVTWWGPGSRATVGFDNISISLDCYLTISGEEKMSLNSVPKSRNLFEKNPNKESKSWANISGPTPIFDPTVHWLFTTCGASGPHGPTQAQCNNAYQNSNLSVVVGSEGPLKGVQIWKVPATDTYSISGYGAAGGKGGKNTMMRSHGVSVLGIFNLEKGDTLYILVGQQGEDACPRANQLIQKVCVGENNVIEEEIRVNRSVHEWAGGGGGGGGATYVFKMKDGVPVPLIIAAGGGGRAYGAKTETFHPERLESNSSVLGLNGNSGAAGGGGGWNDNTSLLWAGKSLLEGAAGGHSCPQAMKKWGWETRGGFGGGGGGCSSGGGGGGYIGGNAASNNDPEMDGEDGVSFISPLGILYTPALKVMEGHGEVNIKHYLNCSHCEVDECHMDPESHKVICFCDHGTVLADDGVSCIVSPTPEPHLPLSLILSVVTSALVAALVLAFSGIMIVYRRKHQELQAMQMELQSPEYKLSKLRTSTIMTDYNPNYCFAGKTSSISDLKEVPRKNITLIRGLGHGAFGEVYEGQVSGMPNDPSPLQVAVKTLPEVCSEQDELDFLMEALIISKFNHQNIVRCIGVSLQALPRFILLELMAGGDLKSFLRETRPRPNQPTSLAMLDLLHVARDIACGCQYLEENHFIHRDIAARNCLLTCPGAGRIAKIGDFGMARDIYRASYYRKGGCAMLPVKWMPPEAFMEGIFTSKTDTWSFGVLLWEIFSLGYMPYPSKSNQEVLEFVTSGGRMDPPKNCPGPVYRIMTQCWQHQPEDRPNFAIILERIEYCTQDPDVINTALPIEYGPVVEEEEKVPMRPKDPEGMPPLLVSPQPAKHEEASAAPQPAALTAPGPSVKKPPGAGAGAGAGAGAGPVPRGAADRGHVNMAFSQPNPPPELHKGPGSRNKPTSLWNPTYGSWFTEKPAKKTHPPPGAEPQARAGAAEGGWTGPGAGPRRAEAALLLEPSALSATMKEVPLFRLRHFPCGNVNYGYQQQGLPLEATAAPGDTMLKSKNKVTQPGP

[10] = test system: GL261; assay: Induction of cell cycle arrest in mouse GL261 cells assessed as accumulation at S phase at 1 uM incubated for 72 hrs by flow cytometry (reference value: 13.9%); type: functional, cell-based
[11] = biological target: ALK tyrosine kinase receptor (Homo sapiens, UniProt Q9UM73); conditions: U-87 MG, dose 0.5-2 µM, time 24.0 hrs
Chain of ALK tyrosine kinase receptor (Q9UM73 19-1620 limits assumed): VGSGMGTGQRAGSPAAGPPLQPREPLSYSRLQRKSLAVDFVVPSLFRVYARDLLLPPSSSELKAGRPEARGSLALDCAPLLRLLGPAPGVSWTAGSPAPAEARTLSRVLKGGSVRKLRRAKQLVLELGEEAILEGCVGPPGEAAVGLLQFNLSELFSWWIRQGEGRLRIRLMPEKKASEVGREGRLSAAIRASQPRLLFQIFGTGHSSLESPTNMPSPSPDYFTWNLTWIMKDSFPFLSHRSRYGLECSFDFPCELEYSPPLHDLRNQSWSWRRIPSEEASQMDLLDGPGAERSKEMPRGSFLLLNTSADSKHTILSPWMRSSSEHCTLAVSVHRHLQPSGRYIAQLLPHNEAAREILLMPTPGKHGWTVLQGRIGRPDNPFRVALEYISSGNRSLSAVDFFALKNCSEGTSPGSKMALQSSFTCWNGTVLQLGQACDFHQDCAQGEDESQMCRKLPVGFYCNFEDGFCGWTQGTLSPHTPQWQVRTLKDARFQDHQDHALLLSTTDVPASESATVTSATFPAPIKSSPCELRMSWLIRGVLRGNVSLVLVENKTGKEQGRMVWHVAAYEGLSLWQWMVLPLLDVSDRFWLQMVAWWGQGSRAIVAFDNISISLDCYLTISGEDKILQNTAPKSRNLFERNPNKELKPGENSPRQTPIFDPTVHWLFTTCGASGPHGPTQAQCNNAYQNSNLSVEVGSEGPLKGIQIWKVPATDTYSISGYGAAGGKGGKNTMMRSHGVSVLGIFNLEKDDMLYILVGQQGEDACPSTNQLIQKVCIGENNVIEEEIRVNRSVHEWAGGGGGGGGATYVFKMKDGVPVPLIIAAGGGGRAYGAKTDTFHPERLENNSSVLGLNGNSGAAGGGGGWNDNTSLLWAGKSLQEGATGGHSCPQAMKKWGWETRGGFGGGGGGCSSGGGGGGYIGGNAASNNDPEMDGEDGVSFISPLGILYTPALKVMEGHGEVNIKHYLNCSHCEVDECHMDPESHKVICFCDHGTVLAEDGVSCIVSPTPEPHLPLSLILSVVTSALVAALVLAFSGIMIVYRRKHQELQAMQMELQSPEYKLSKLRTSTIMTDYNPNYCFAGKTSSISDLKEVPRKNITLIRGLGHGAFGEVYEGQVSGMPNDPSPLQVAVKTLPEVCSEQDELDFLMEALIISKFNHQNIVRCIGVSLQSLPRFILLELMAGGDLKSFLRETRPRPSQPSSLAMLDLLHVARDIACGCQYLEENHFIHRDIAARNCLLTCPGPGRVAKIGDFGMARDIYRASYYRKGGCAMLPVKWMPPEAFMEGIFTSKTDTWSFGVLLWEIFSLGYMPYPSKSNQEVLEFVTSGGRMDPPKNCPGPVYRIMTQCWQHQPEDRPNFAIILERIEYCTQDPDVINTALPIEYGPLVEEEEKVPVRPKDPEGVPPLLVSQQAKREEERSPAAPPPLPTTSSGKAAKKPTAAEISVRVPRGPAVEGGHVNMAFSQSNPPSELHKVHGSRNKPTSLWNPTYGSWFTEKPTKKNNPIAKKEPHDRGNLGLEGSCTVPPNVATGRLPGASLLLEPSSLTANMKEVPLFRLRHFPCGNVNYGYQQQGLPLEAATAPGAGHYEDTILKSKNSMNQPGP

[12] = test system: GL261; assay: Induction of apoptosis in mouse GL261 cells assessed as necrotic cells measured at 0.5 to 2 uM after 72 hrs by flow cytometry; type: functional, cell-based; conditions: dose 0.5-2 µM
[13] = test system: GL261; assay: Induction of autophagy in mouse GL261 cells assessed as cell viability pretreated with 5 uM CQ for 4 hrs followed by treated at 0.5 to 2 uM measured after 48 hrs by CCK8 assay; type: functional, cell-based
[14] = biological target: ALK tyrosine kinase receptor (Mus musculus) (UniProt P97793); assay: Binding affinity to ALK in mouse GL261 cell lysate assessed as increase in thermal stability of the protein measured after 4 hrs by […] based CETSA analysis; type: subcellular
[15] = Cmax in C57BL6/J mouse at 5 mg/kg, ip measured upto 24 hrs by LC-MS/MS analysis; type: ADME, organism-based; parameters: time < 24 hrs, dose 5 mg/kg, route ip; conditions: in vivo
[16] = test system: GL261; assay: Induction of autophagy in mouse GL261 cells assessed as decrease in mTOR phosphorylation at 0.5 to 2 uM incubated for 24 hrs by Western blot analysis; type: functional, cell-based; conditions: dose 0.5-2 µM

- bioavailability [6]: 38.4%
- MRT last at 24 h [8]: 37.8 min
- Activity [9]: Active
- inhibition [11]: Active
- Activity [14]: Active
- Cmax [15]: 118 ng/mL
SMILES: Cc1ccc(S(=O)(=O)n2cc(Cc3cc(C)c(O)c(C)c3)c3ccccc32)cc1
- Activity [1]: Active
- Activity [2]: Active
- inhibition at 160 µM [3]: 50%
- Activity [4]: Dose-Dependent Effect
- inhibition at 2 µM [5]: 80%
- Activity [7]: Tde
- Activity [10]: Active
- Activity [12]: Active
- Activity [13]: inactive
- Activity [16]: Active

Reference: ChEMBL document CHEMBL5370642, “Synthesis and Bioevaluation of 3-(Arylmethylene)indole Derivatives: Discovery of a Novel ALK Modulator with Antiglioblastoma Activities” (J Med Chem, 2023)
